Data on 1 molecule can be found in patent US8344009B2, “Substituted phenoxy thiazolidinediones as estrogen related receptor-á modulators” (priority 2007, dated 2013).

Experiment [1] deals with C57/BL6 male mice. Nature of the experiment: C57/Bl6 diet induced obesity mouse model. Type of experiment: in vivo. The text has this:
C57/B16 mice placed on a high fat diet are characterized by hypertriglyceridemia, impaired glucose tolerance and develop hepatic steatosis. Forty C57/BL6 male mice were received at seven weeks of age, allowed to acclimate for one week, placed on high fat diet (Test Diet 58Y1 60% of the calories from fat) for 6 weeks, and then single housed on the same diet for an additional five weeks. Body mass composition and insulin were used to randomize the animals into three groups. […] Ten additional animals were maintained on a low fat diet (4% calories from fat) and during the course of the study were given vehicle orally once a day. Blood was collected from the tail to evaluate glucose, triglyceride, FFA and insulin levels. Body weight and body composition were also recorded. Upon necropsy animals were bled through the orbital sinus under CO2:O2 anesthesia, sacrificed, and several tissues were collected and frozen in liquid nitrogen for storage at −80° C. for further use. Serum plasma samples were prepared by centrifugation in EDTA containing tubes, transferred to 96 well plates and stored at −80° C. Insulin, FFA and triglyceride levels were obtained via Day 10 tail bleed. On day fourteen an OGTT (Oral Glucose Tolerance Test) was done to determine glucose disposal rates in C57B16 mice treated with compound.

Experiment [2] has as its target T1, ERR1 (also known as ERR-α or ERR-1) (Homo sapiens, UniProt P11474).
T1 sequence (P11474 193-421 limits assumed): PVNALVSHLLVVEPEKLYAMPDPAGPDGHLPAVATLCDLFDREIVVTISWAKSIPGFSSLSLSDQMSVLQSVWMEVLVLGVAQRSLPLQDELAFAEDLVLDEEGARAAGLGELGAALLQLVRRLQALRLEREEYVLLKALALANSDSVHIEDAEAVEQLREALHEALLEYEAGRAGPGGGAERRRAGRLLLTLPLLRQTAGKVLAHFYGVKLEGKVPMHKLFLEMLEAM
Nature of the experiment: TR-FRET assay (disruption of co-activator peptide binding to ERR1 LBD). Type of experiment: biochemical. The procedure:
Time-Resolved Fluorescence Resonance Energy Transfer (TR-FRET) experiments were performed to examine the functional response of ERR1 (also known as ERR-α or ERR-1) ligands. The TR-FRET assay described herein relied on the conformation of ERR1 for binding to a co-activator peptide: when a test compound binds to ERR1 and alters its conformation, it can disrupt the binding of the co-activator peptide. The components of this homogeneous secondary assay included: the ^6His-tagged-ERR1LBD, a GST-labeled-hSRC2 co-activator polypeptide and a fluorescent donor/acceptor pair from CIS bio international htrf/bioassays (Bedford, Mass.) using both an α-GST Europium Cryptate (Eu) label and an α^6His-XL665 (allophycocyanin) fluorophore.
Reactions were allowed to reach equilibrium at 25° C. for 4-18 hours before collecting data on the Analyst from LJL Biosystems (Molecular Devices Sunnyvale, Calif.). […] Dose response curves were fitted using a hyperbolic equation and the data reported is the average of 3 independent experiments.
(In general: TR-FRET usually uses a lanthanide donor and a delayed reading to cut background.)

Where [3] appears, read: 10 mpk once a day, HFD, 10 days.
Where [4] appears, read: 10 mpk, after 14 days of treatment.
Where [5] appears, read: 30 mpk once a day, HFD, 10 days.
Setting [6] is: 30 mpk, after 14 days of treatment.

Structures are written as SMILES. Marks after values point to notes of the source that are not given here.

For the molecule `COc1cc(/C=C2\SC(=O)NC2=O)ccc1Oc1ccc(C#N)cc1C(F)(F)F` [Compound 1, 4-[4-(2,4-Dioxo-thiazolidin-5-ylidenemethyl)-2-methoxy-phenoxy]-3-trifluoromethyl-benzonitrile], in experiment [1] (setting [3]), the FFA is listed as 0.38* mEq/L and the Insulin was 1.4* μg/L. For the same molecule, the Triglyceride in experiment [1] (10 mpk once a day, HFD, 10 days, tail bleed) is on record as 58** mg/dL. Also, in experiment [1] (setting [4]), the “AUC 0-60 min of glucose in OGTT” value is reported as 15077 mg/dL/1 hr and the “AUC 0-120 min of glucose in OGTT” value worked out at 27984 mg/dL/2 hr. For the same molecule, in experiment [1] (10 mpk, treated for 18 days), the 3-hydroxy-butyrate is given as 6.0 ×10−5, the “FFA (NEFA)” value is 0.49 mEq, the Glucose stood at 176 mg/dL and the LDL is 12 mg/dL. Also, the Triglyceride in experiment [1] (10 mpk, treated for 18 days) is on record as 123 mg/dL. Moreover, in experiment [1] (setting [5]), the FFA is on record as 0.40* mEq/L and the Insulin is 1.3* μg/L. Also, the Triglyceride in experiment [1] (30 mpk once a day, HFD, 10 days, tail bleed) is reported as 59* mg/dL. Moreover, in experiment [1] (setting [6]), the “AUC 0-60 min of glucose in OGTT” value is reported as 14425* mg/dL/1 hr and the “AUC 0-120 min of glucose in OGTT” value is reported as 28540 mg/dL/2 hr. Also, in experiment [1] (30 mpk, treated for 18 days), the 3-hydroxy-butyrate is listed as 9.1* ×10−5, the “FFA (NEFA)” value was 0.38* mEq, the Glucose worked out at 174 mg/dL and the LDL was 7* mg/dL. Besides, the Triglyceride in experiment [1] (30 mpk, treated for 18 days) is listed as 58*** mg/dL. Besides, the “plasma glucose following an oral glucose tolerance test” value in experiment [1] (FIG. 2 and Table VI, after 14 days of treatment) was “reduces fasting plasma glucose following an oral glucose tolerance test”. Besides, the midpoint of the response in experiment [2], the EC50, lay at 54 nM.
